This passage reports IC50 results from US20140073628A1, “BENZOXAZEPINES ASN INHIBITORS OF P13K/M TOR AND METHODS OF THEIR USE AND MANUFACTURE” (priority 2010, published 2014).

In this test the target is mTOR/GbL/Raptor (mTORC1) (Homo sapiens, UniProt P42345). Nature of the test: mTOR/GbL/Raptor (mTORC1) ELISA assay. Particulars: phosphorylation of 4E-BP1; 0.2 nM mTORC1, 10 μM ATP, 50 nM NHis-tagged 4E-BP1. The class given is biochemical. The method, then: mTOR/GbL/Raptor (mTORC1) ELISA Assay
The measurement of mTORC1 enzyme activity was performed in an ELISA assay format following the phosphorylation of 4E-BP1 protein. All experiments were performed in the 384-well format. Generally, 0.5 μL DMSO containing varying concentrations of the test compound was mixed with 15 μL enzyme solution. Kinase reactions were initiated with the addition of 15 μL of substrates-containing solution. The assay conditions were as follows; 0.2 nM mTORC1, 10 μM ATP and 50 nM NHis-tagged 4E-BP1 in 20 mM Hepes, pH 7.2, 1 mM DTT, 50 mM NaCl, 10 mM MnCl2, 0.02 mg/mL BSA, 0.01% CHAPS, 50 mM β-glycerophosphate. Following an incubation of 120 minutes at ambient temperature, 20 μL of the reaction volume was transferred to a Ni-Chelate-coated 384-well plate. The binding step of the 4E-BP1 protein proceeded for 60 minutes, followed by washing 4 times each with 50 μL of Tris-buffered saline solution (TBS). Anti-phospho-4E-BP1 rabbit-IgG (20 μL, 1:5000) in 5% BSA-TBST (0.2% Tween-20 in TBS) was added and further incubated for 60 minutes. Incubation with a secondary HRP-tagged anti-IgG was similarly performed after washing off the primary antibody (4 washes of 50 μL). Following the final wash step with TBST, 20 μL of SuperSignal ELISA Femto (Pierce Biotechnology) was added and the luminescence measured using an EnVision plate reader.
(ELISA stands for enzyme-linked immunosorbent assay.)

Some results are limits rather than exact numbers.

With `Cc1nc(N)nc(N2CCOc3ccc(-c4ccc5[nH]cnc5c4)cc3C2)c1Cc1ccc(F)cc1` [Compound 36, 4-[7-(1H-benzimidazol-5-yl)-2,3-dihydro-1,4-benzoxazepin-4(5H)-yl]-5-[(4-fluorophenyl)methyl]-6-methylpyrimidin-2-amine], the IC50 (commonly the concentration that inhibits the measured activity by half) was not above 100 nM. As for `Cc1nc2cc(-c3ccc4c(c3)CN(c3nc(CN(C)C)nc(C)c3Cl)CCO4)ccc2[nH]1` [Compound 31, 1-{5-chloro-4-methyl-6-[7-(2-methyl-1H-benzimidazol-5-yl)-2,3-dihydro-1,4-benzoxazepin-4(5H)-yl]pyrimidin-2-yl}-N,N-dimethylmethanamine], the figure is 500 to 2500 nM.

Regarding `CCNc1nc(C)c(Cc2ccc(F)cc2)c(N2CCOc3ccc(-c4ccc5[nH]c(C)nc5c4)cc3C2)n1` [Compound 12, N-ethyl-5-[(4-fluorophenyl)methyl]-4-methyl-6-[7-(2-methyl-1H-benzimidazol-5-yl)-2,3-dihydro-1,4-benzoxazepin-4(5H)-yl]pyrimidin-2-amine], the IC50 was not above 100 nM. For `CC(=O)NCc1nc2c(c(N3CCOc4ccc(-c5ccc6[nH]c(C)nc6c5)cc4C3)n1)CC(C)(C)CC2` [Compound 26, N-({6,6-dimethyl-4-[7-(2-methyl-1H-benzimidazol-5-yl)-2,3-dihydro-1,4-benzoxazepin-4(5H)-yl]-5,6,7,8-tetrahydroquinazolin-2-yl}methyl)acetamide] the value was not above 100 nM. As for `COC(=O)Cc1c(C)nc(CN(C)C)nc1N1CCOc2ccc(-c3ccc4nc(C)[nH]c4c3)cc2C1` [Compound 6, methyl {2-[(dimethylamino)methyl]-4-methyl-6-[7-(2-methyl-1H-benzimidazol-5-yl)-2,3-dihydro-1,4-benzoxazepin-4(5H)-yl]pyrimidin-5-yl}acetate], the figure is 500 to 2500 nM; as for `Cc1nc2cc(-c3ccc4c(c3)CN(c3nc(NC5CNC5)nc(C)c3C(C)C)CCO4)ccc2[nH]1` [Compound 15, N-azetidin-3-yl-4-methyl-6-[7-(2-methyl-1H-benzimidazol-5-yl)-2,3-dihydro-1,4-benzoxazepin-4(5H)-yl]-5-(1-methylethyl)pyrimidin-2-amine], not above 100 nM; as for `Cc1nc(N)nc(N2CCOc3ccc(-c4cnc5[nH]cnc5c4)cc3C2)c1C(C)C` [Compound 52, 4-[7-(3H-imidazo[4,5-b]pyridin-6-yl)-2,3-dihydro-1,4-benzoxazepin-4(5H)-yl]-6-methyl-5-(1-methylethyl)pyrimidine-2-amine], not above 100 nM. As for `Cc1nc2cc(-c3ccc4c(c3)CN(c3nc(C(C)N)nc5c3CC(C)(C)CC5)CCO4)ccc2[nH]1` (stereo not shown) [Compound 24, 1-{6,6-dimethyl-4-[7-(2-methyl-1H-benzimidazol-5-yl)-2,3-dihydro-1,4-benzoxazepin-4(5H)-yl]-5,6,7,8-tetrahydroquinazolin-2-yl}ethanamine], the figure is not above 100 nM; as for `Cc1nc(N)nc(N2CCOc3ccc(-c4cnc5[nH]c(N)nc5c4)cc3C2)c1C(C)C` [Compound 46, 6-{4-[2-amino-6-methyl-5-(1-methylethyl)pyrimidin-4-yl]-2,3,4,5-tetrahydro-1,4-benzoxazepin-7-yl}-3H-imidazo[4,5-b]pyridin-2-amine], not above 100 nM; as for `Cc1nc2cc(-c3ccc4c(c3)CN(c3nc(N)nc(C)c3C(C)C)CCO4)cnc2[nH]1` [Compound 50, 4-methyl-5-(1-methylethyl)-6-[7-(2-methyl-3H-imidazo[4,5-b]pyridin-6-yl)-2,3-dihydro-1,4-benzoxazepin-4(5H)-yl]pyrimidin-2-amine], not above 100 nM.

`Cc1nc2cc(-c3ccc4c(c3)CN(c3nc(N)nc5c3CC(C)(C)CC5)CCO4)ccc2[nH]1` [Compound 29, 6,6-dimethyl-4-[7-(2-methyl-1H-benzimidazol-5-yl)-2,3-dihydro-1,4-benzoxazepin-4(5H)-yl]-5,6,7,8-tetrahydroquinazolin-2-amine] gave an IC50 not above 100 nM. In turn, `CCN(CC)Cc1nc(C)c(C(C)C)c(N2CCOc3ccc(-c4ccc5nc(C)[nH]c5c4)cc3C2)n1` [Compound 3, N-ethyl-N-({4-methyl-6-[7-(2-methyl-1H-benzimidazol-5-yl)-2,3-dihydro-1,4-benzoxazepin-4(5H)-yl]-5-(1-methylethyl)pyrimidin-2-yl}methyl)ethanamine] registered an IC50 of 100 to 500 nM. As for `COc1ccc2c(N3CCOc4ccc(-c5cnc6[nH]cnc6c5)cc4C3)nc(CN(C)C)nc2c1` [Compound 49, 1-{4-[7-(3H-imidazo[4,5-b]pyridin-6-yl)-2,3-dihydro-1,4-benzoxazepin-4(5H)-yl]-7-(methyloxy)quinazolin-2-yl}-N,N-dimethylmethanamine], the figure is 500 to 2500 nM. In turn, `Cc1nc2cc(-c3ccc4c(c3)CN(c3nc(NCCN(C)C)nc(C)c3Cc3ccc(F)cc3)CCO4)ccc2[nH]1` [Compound 11, N′-{5-[(4-fluorophenyl)methyl]-4-methyl-6-[7-(2-methyl-1H-benzimidazol-5-yl)-2,3-dihydro-1,4-benzoxazepin-4(5H)-yl]pyrimidin-2-yl}-N,N-dimethylethane-1,2-diamine] came in with an IC50 not above 100 nM.

Compound `COc1ccc(-c2ccc3c(c2)CN(c2nc(N)nc(C)c2C(C)C)CCO3)cc1NS(C)(=O)=O` [Compound 16, N-[5-{4-[2-amino-6-methyl-5-(1-methylethyl)pyrimidin-4-yl]-2,3,4,5-tetrahydro-1,4-benzoxazepin-7-yl}-2-(methyloxy)phenyl]methanesulfonamide] gave an IC50 not above 100 nM.

`Cc1nc2ccc(-c3ccc4c(c3)CN(c3nc(CN(C)C)nc(C)c3C)CCO4)cc2[nH]1` [Compound 2, I-{4,5-dimethyl-6-[7-(2-methyl-1H-benzimidazol-6-yl)-2,3-dihydro-1,4-benzoxazepin-4(5H)-yl]pyrimidin-2-yl}-N,N-dimethylmethanamine] gave an IC50 of 500 to 2500 nM. Take `COCCc1c(C)nc(CN(C)C)nc1N1CCOc2ccc(-c3ccc4nc(C)[nH]c4c3)cc2C1` [Compound 1, N,N-dimethyl-1-{4-methyl-6-[7-(2-methyl-1H-benzimidazol-6-yl)-2,3-dihydro-1,4-benzoxazepin-4(5H)-yl]-5-[2-(methyloxy)ethyl]pyrimidin-2-yl}methanamine]: the IC50 is 500 to 2500 nM. As for `Cc1nc(N)nc(N2CCOc3ccc(-c4cnc5[nH]cnc5c4)cc3C2)c1Cc1ccc(F)cc1` [Compound 47, 5-[(4-fluorophenyl)methyl]-4-[7-(3H-imidazo[4,5-b]pyridin-6-yl)-2,3-dihydro-1,4-benzoxazepin-4(5H)-yl]-6-methylpyrimidin-2-amine], the figure is not above 100 nM; as for `Cc1nc2cc(-c3ccc4c(c3)CN(c3nc(CN5CCCC5)nc(C)c3C(C)C)CCO4)ccc2[nH]1` [Compound 20, 7-(2-methyl-1H-benzimidazol-5-yl)-4-[6-methyl-5-(1-methylethyl)-2-(pyrrolidin-1-ylmethyl)pyrimidin-4-yl]-2,3,4,5-tetrahydro-1,4-benzoxazepine], 100 to 500 nM; as for `Cc1nc2cc(-c3ccc4c(c3)CN(c3nc(NC5CNC5)nc(C)c3Cc3ccc(F)cc3)CCO4)ccc2[nH]1` [Compound 14, N-azetidin-3-yl-5-[(4-fluorophenyl)methyl]-4-methyl-6-[7-(2-methyl-1H-benzimidazol-5-yl)-2,3-dihydro-1,4-benzoxazepin-4(5H)-yl]pyrimidin-2-amine], not above 100 nM. Compound `COc1ccc(-c2ccc3c(c2)CN(c2nc(CN(C)C)nc4c2CC(C)(C)CC4)CCO3)cc1S(C)(=O)=O` [Compound 9, 1-(6,6-dimethyl-4-{7-[4-(methyloxy)-3-(methylsulfonyl)phenyl]-2,3-dihydro-1,4-benzoxazepin-4(5H)-yl}-5,6,7,8-tetrahydroquinazolin-2-yl)-N,N-dimethylmethanamine] registered an IC50 of 500 to 2500 nM. For `Cc1nc2ccc(-c3cc(F)c4c(c3)CN(c3nc(N)nc(C)c3C(C)C)CCO4)cc2[nH]1` [Compound 51, 4-[9-fluoro-7-(2-methyl-1H-benzimidazol-6-yl)-2,3-dihydro-1,4-benzoxazepin-4(5H)-yl]-6-methyl-5-(1-methylethyl)pyrimidin-2-amine], the IC50 is not above 100 nM. For the compound `Cc1nc2cc(-c3ccc4c(c3)CN(c3nc(N)nc(C)c3C(C)C)CCO4)ccc2[nH]1` [Compound 41, 4-methyl-6-[7-(2-methyl-1H-benzimidazol-5-yl)-2,3-dihydro-1,4-benzoxazepin-4(5H)-yl]-5-(1-methylethyl)pyrimidin-2-amine], the IC50 was not above 100 nM. The compound `Cc1nc2ccc(-c3ccc4c(c3)CN(c3nc(CO)nc(C)c3C(C)C)CCO4)cc2[nH]1` [Compound 5, {4-methyl-6-[7-(2-methyl-1H-benzimidazol-5-yl)-2,3-dihydro-1,4-benzoxazepin-4(5H)-yl]-5-(1-methylethyl)pyrimidin-2-yl}methanol] returned an IC50 not above 100 nM.

For `C=CCc1c(C)nc(N)nc1N1CCOc2ccc(-c3ccc4nc(C)[nH]c4c3)cc2C1` [Compound 35, 4-methyl-6-[7-(2-methyl-1H-benzimidazol-5-yl)-2,3-dihydro-1,4-benzoxazepin-4(5H)-yl]-5-prop-2-en-1-ylpyrimidin-2-amine], the IC50 was not above 100 nM.
